Patent US20250179047A1, “5-[7-(3,4-DIHYDRO-1H-ISOQUINOLINE-2-CARBONYL)-1,2,3,4 TETRAHYDROISOQUINOLIN-6-YL]-1H-PYRROLE-3-CARBOXAMIDE DERIVATIVES, PHARMACEUTICAL COMPOSITIONS CONTAINING THEM AND THEIR USES AS PRO-APOPTOTIC AGENTS” (LES LABORATOIRES SERVIER, priority 2022, published 2025)

Experiments:
[1] = test system: KMS-12-PE Bcl-2 G101V; assay: In vitro cytotoxicity CellTiter-Glo 48 h, KMS-12-PE Bcl-2 G101V; assay type: cell-based; settings: for Ratio (G101V/WT): C50 KMS-12-PE Bcl-2 G101V over C50 KMS-12-PE Bcl-2 WT; for IC50: 48 h, CellTiter-Glo, C50 = concentration needed to reach 50% of the cellular viability
Summary of the method: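 CTG luminescence read-out; C50 = concentration reaching 50% cellular viability. Cells: KMS-12-PE expressing Bcl-2 WT or G101V (lentiviral, TagRFP-sorted). 11-pt curve, 48 h, 37 °C/5% CO2.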

[2] = test system: KMS12PE Bcl2 R129L; assay: In vitro cytotoxicity CellTiterGlo 72 h, KMS12PE Bcl2 R129L; assay type: cell-based; settings: Homo sapiens, KMS-12-PE, read-out: C50 nM, KMS12PE Bcl2 R129L
Method: KMS-12-PE (ACC 606) were purchased from the Leibniz-Institute DSMZ (Braunschweig, Germany) and were grown at 37° C. in a humidified atmosphere with 5% CO2 in media recommended by the suppliers. Lentiviral particles containing Bcl-2 wild type (also named “Bcl2 WT”), Bcl-2 mutated on G101V (also named “Bcl2 G101V”), Bcl-2 mutated on D103Y (also named “Bcl2 D103Y”), Bcl-2 mutated on D103V (also named “Bcl2 D103V”), Bcl-2 mutated on D103E (also named “Bcl2 D103E”), Bcl-2 mutated on F104I (also named “Bcl2 F104I”), Bcl-2 mutated on F104L (also named “Bcl2 F104L”), Bcl-2 mutated on D111A (also named “Bcl2 D111A”), Bcl-2 mutated on A113G (also named “Bcl2 A113G”), Bcl-2 mutated on R129L (also named “Bcl2 R129L”), Bcl-2 mutated on V156D (also named “Bcl2 V156D”) were cloned into pcLV-CMV-DEST-IRES-TagRFP. Lentiviral particles (1×10^6) were mixed with Polybrene at 8 μg/ml and transduced by spinoculation for 1 h at 32° C. and incubated overnight. After 8 days, TagRFP positive-cells were sorted by FACS. BCL2 expression was monitored by immunoblotting using anti-Flag and anti-BCL2 antibodies. Cells were seeded into 96-wells plates and treated with 1:3.16 serial dilution of compounds (9 different concentrations). Cell viability was assessed using CellTiterGlo reagent following treatment for 72 h. Results were normalized to the viability of cells without compounds (control wells). The C50 values were calculated using nonlinear regression algorithms in XCell software.

[3] = target: BCL2 F104I (Homo sapiens, UniProt P10415, F104I); assay: TR-FRET competitive binding assay, BCL2 F104I; settings: Ki determined from IC50, read-out: TR_FRET EKI_Bcl2 F104I
Summary of the method: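 Ki derived from IC50 (11-point dilution, 520/495 nm emission ratio) for displacing a fluorescein-labelled PUMA peptide (2 or 20 nM). Target was 0.5 nM E. coli-expressed Halo-tagged BCL2 (1-207) or BCLXL (2-196), terbium-labelled on Halo. Incubation 2 h at 23°C in pH 7.5 Hepes with 150 mM NaCl and 5% DMSO.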

Structure (SMILES) | Ki [3] | Ratio (G101V/WT) [1] | IC50 ([1]; Homo sapiens, KMS-12-PE) | IC50 [2] | IC50 [1]
Cc1c(N(C(=O)c2cc(-c3cc4c(cc3C(=O)N3Cc5ccccc5C[C@H]3C)CN(C(=O)Cc3ccc(OCCN5CCOCC5)cc3)CC4)n(C)c2C)c2ccc(O)cc2)cc(C#N)n1C [Example 21, N-(5-cyano-1,2-dimethyl-1H-pyrrol-3-yl)-N-(4-hydroxyphenyl)-1,2-dimethyl-5-{7-[(3R)-3-methyl-1,2,3,4-tetrahydroisoquinoline-2-carbonyl]-2-(2-{4-[2-(morpholin-4-yl)ethoxy]phenyl}acetyl)-1,2,3,4-tetrahydroisoquinolin-6-yl}-1H-pyrrole-3-carboxamide] | 0.29 nM | 4.02 | 0.023 µM | 1.51 nM | –
Cc1c(N(C(=O)c2cc(-c3cc4c(cc3C(=O)N3Cc5ccccc5C[C@H]3CN3CCCCC3)CN(C(=O)Cc3ccc(OCCN5CCOCC5)cc3F)CC4)n(C)c2C)c2ccc(O)cc2)cc(C#N)n1C [Example 43, N-(5-cyano-1,2-dimethylpyrrol-3-yl)-5-[2-(2-{2-fluoro-4-[2-(morpholin-4-yl)ethoxy]phenyl}acetyl)-7-{[(3S)-3-(piperidin-1-ylmethyl)-3,4-dihydro-1H-isoquinolin-2-yl]carbonyl}-3,4-dihydro-1H-isoquinolin-6-yl]-N-(4-hydroxyphenyl)-1,2-dimethylpyrrole-3-carboxamide] | 0.16 nM | 4.82 | – | 0.99 nM | 0.0232 µM
Cc1c(N(C(=O)c2cc(-c3cc4c(cc3C(=O)N3Cc5ccccc5C[C@H]3C)CN(C(=O)Cc3ccc(N5CCN6CCOC[C@@H]6C5)cc3F)CC4)n(C)c2C)c2ccc(O)cc2)cc(C#N)n1C [Example 45, 5-[2-(2-{4-[(9aS)-octahydropyrazino[2,1-c][1,4]oxazin-8-yl]-2-fluorophenyl}acetyl)-7-[(3R)-3-methyl-1,2,3,4-tetrahydroisoquinoline-2-carbonyl]-1,2,3,4-tetrahydroisoquinolin-6-yl]-N-(5-cyano-1,2-dimethyl-1H-pyrrol-3-yl)-N-(4-hydroxyphenyl)-1,2-dimethyl-1H-pyrrole-3-carboxamide] | 1.65 nM | 6.47 | 0.0324 µM | 1.89 nM | –
Cc1c(C(=O)N(c2ccc(O)cc2)c2cc(C#N)n(C(F)F)c2C)cc(-c2cc3c(cc2C(=O)N2Cc4ccccc4C[C@H]2CN2CCCCC2)CN(C(=O)Cc2ccc(OCCN4CCOCC4)cc2F)CC3)n1C [Example 78, N-[5-cyano-1-(difluoromethyl)-2-methylpyrrol-3-yl]-5-[2-(2-{2-fluoro-4-[2-(morpholin-4-yl)ethoxy]phenyl}acetyl)-7-{[(3S)-3-(piperidin-1-ylmethyl)-3,4-dihydro-1H-isoquinolin-2-yl]carbonyl}-3,4-dihydro-1H-isoquinolin-6-yl]-N-(4-hydroxyphenyl)-1,2-dimethylpyrrole-3-carboxamide] | 0.43 nM | 5.98 | 0.0299 µM | 0.9 nM | –
Cc1c(N(C(=O)c2cc(-c3cc4c(cc3C(=O)N3Cc5ccccc5C[C@H]3CN3CCC[C@H](C)C3)CN(C(=O)Cc3ccc(OCCN5CCOCC5)cc3F)CC4)n(C)c2C)c2ccc(O)cc2)cc(C#N)n1C [Example 107] | 0.34 nM | 4.47 | 0.0166 µM | 1.12 nM | –

Continued by falling Ki [3], values first:

Ki [3] | Structure (SMILES) | Ratio (G101V/WT) [1] | IC50 ([1]; Homo sapiens, KMS-12-PE) | IC50 [2] | IC50 [1]
4.91 nM | Cc1c(N(C(=O)c2cc(-c3cc4c(cc3C(=O)N3Cc5ccccc5C[C@H]3C)CN(C(=O)Cc3ccc(CCN5CCC(F)(F)CC5)cc3)CC4)n(C)c2C)c2ccc(O)cc2)cc(C#N)n1C [Example 51, N-(5-cyano-1,2-dimethylpyrrol-3-yl)-5-[2-(2-{4-[2-(4,4-difluoropiperidin-1-yl)ethyl]phenyl}acetyl)-7-{[(3R)-3-methyl-3,4-dihydro-1H-isoquinolin-2-yl]carbonyl}-3,4-dihydro-1H-isoquinolin-6-yl]-N-(4-hydroxyphenyl)-1,2-dimethylpyrrole-3-carboxamide] | 5.07 | 0.0362 µM | 3.22 nM | –
2.36 nM | Cc1c(N(C(=O)c2cc(-c3cc4c(cc3C(=O)N3Cc5ccccc5C[C@H]3C)CN(C(=O)Cc3ccc(OCCC5CCOCC5)cc3)CC4)n(C)c2C)c2ccc(O)cc2)cc(C#N)n1C [Example 27, N-(5-cyano-1,2-dimethyl-1H-pyrrol-3-yl)-N-(4-hydroxyphenyl)-1,2-dimethyl-5-{7-[(3R)-3-methyl-1,2,3,4-tetrahydroisoquinoline-2-carbonyl]-2-(2-{4-[2-(oxan-4-yl)ethoxy]phenyl}acetyl)-1,2,3,4-tetrahydroisoquinolin-6-yl}-1H-pyrrole-3-carboxamide] | 4.23 | 0.0143 µM | 0.99 nM | –
0.77 nM | COC[C@@H]1Cc2ccccc2CN1C(=O)c1cc2c(cc1-c1cc(C(=O)N(c3ccc(O)cc3)c3cc(C#N)n(C)c3C)c(C)n1C)CCN(C(=O)Cc1ccc(OCCC3CCOCC3)cc1F)C2 [Example 52, N-(5-cyano-1,2-dimethylpyrrol-3-yl)-5-[2-(2-{2-fluoro-4-[2-(oxan-4-yl)ethoxy]phenyl}acetyl)-7-{[(3S)-3-(methoxymethyl)-3,4-dihydro-1H-isoquinolin-2-yl]carbonyl}-3,4-dihydro-1H-isoquinolin-6-yl]-N-(4-hydroxyphenyl)-1,2-dimethylpyrrole-3-carboxamide] | 4.08 | 0.0139 µM | 1.89 nM | –
0.47 nM | Cc1c(N(C(=O)c2cc(-c3cc4c(cc3C(=O)N3Cc5ccccc5C[C@H]3CN3CCCCC3)CN(C(=O)Cc3ccc(OCCC5CCOCC5)cc3)CC4)n(C)c2C)c2ccc(O)cc2)cc(C#N)n1C [Example 66, N-(5-cyano-1,2-dimethylpyrrol-3-yl)-N-(4-hydroxyphenyl)-1,2-dimethyl-5-[2-(2-{4-[2-(oxan-4-yl)ethoxy]phenyl}acetyl)-7-{[(3S)-3-(piperidin-1-ylmethyl)-3,4-dihydro-1H-isoquinolin-2-yl]carbonyl}-3,4-dihydro-1H-isoquinolin-6-yl]pyrrole-3-carboxamide] | 5.46 | 0.033 µM | 1.32 nM | –
0.47 nM | Cc1c(C(=O)N(c2ccc(O)cc2)c2cc(C#N)n(C(F)F)c2C)cc(-c2cc3c(cc2C(=O)N2Cc4ccccc4C[C@H]2CN2CCCCC2)CN(C(=O)Cc2ccc(OCCN4CCOCC4)cc2)CC3)n1C [Example 77] | 5.1 | 0.0487 µM | 2.81 nM | –
0.35 nM | Cc1c(N(C(=O)c2cc(-c3cc4c(cc3C(=O)N3Cc5ccccc5C[C@H]3C)CN(C(=O)Cc3ccc(OCCN5CCC(F)CC5)cc3)CC4)n(C)c2C)c2ccc(O)cc2)cc(C#N)n1C [Example 53, N-(5-cyano-1,2-dimethyl-1H-pyrrol-3-yl)-5-[2-(2-{4-[2-(4-fluoropiperidin-1-yl)ethoxy]phenyl}acetyl)-7-[(3R)-3-methyl-1,2,3,4-tetrahydroisoquinoline-2-carbonyl]-1,2,3,4-tetrahydroisoquinolin-6-yl]-N-(4-hydroxyphenyl)-1,2-dimethyl-1H-pyrrole-3-carboxamide] | 5.12 | 0.0337 µM | 2.38 nM | –
0.3 nM | Cc1c(N(C(=O)c2cc(-c3cc4c(cc3C(=O)N3Cc5ccccc5C[C@H]3C)CN(C(=O)Cc3ccc(OCCN5CCSCC5)cc3)CC4)n(C)c2C)c2ccc(O)cc2)cc(C#N)n1C [Example 55, N-(5-cyano-1,2-dimethyl-1H-pyrrol-3-yl)-N-(4-hydroxyphenyl)-1,2-dimethyl-5-{7-[(3R)-3-methyl-1,2,3,4-tetrahydroisoquinoline-2-carbonyl]-2-(2-{4-[2-(thiomorpholin-4-yl)ethoxy]phenyl}acetyl)-1,2,3,4-tetrahydroisoquinolin-6-yl}-1H-pyrrole-3-carboxamide] | 4.22 | 0.026 µM | 2.46 nM | –
